From US12616738B2, “Solid compositions comprising a GLP-1 agonist and a salt of N-(8-(2-hydroxybenzoyl)amino)caprylic acid” (Novo Nordisk A/S, priority 2018, dated 2026)
Like-named read-outs stand apart in the source and are kept apart here.

Columns and labels:
[1] = Assay I: SNAC solubility in combination with selected hydrotropes; conditions: for Fold increase in solubility: SNAC solubility relative to SNAC control (no hydrotrope), hydrotrope 200 mg/mL, pH 6; for SNAC concentration: hydrotrope 200 mg/mL in ultrapure water, pH 6, 200 mg SNAC added, 4 hours at room temperature, RP-HPLC
[2] = pH 6
[3] = pH 6; remark: listed apart in the source

SMILES | Fold increase in solubility [1] [fold] | SNAC concentration [1] [mg/mL] | effect on SNAC solubility (FIG. 1) [2] | Fold increase in solubility [3] [fold] | SNAC concentration [3] [mg/mL]
O=C(O[C@@H]1Cc2c(O)cc(O)cc2O[C@@H]1c1cc(O)c(O)c(O)c1)c1cc(O)c(O)c(O)c1 [Epigallocatechin gallate] | 9.6 | 5.66 | – | – | –
CN(C)C(=O)c1ccccc1 [N,N dimethyl benzamide] | 38 | 22.46 | – | – | –
O=C([O-])c1ccccc1O.[Na+] [Sodium salicylate] | – | – | – | 2.7 | 1.59
NC(N)=O [Urea] | 1.3 | 0.77 | – | – | –

The next lines start with results.

Fold increase in solubility [1] [fold] | SNAC concentration [1] [mg/mL] | effect on SNAC solubility (FIG. 1) [2] | SMILES | Fold increase in solubility [3] [fold] | SNAC concentration [3] [mg/mL]
7.8 | 4.58 | – | CCN(CC)C(=O)c1cccnc1 [N,N diethyl nicotinamide] | – | –
– | – | dose dependent effect | NC(=O)c1cccnc1 [Nicotinamide] | – | –
